Measured values: patent publication US20100204210A1, “METHOD FOR TREATING PULMONARY DISEASES USING RHO KINASE INHIBITOR COMPOUNDS” (priority 2008, published 2010)
Where two headings read alike, the source gives them in different places.

Tests used:
rat tracheal rings [1] = experiment: Relaxation of carbachol-precontracted rat tracheal rings with reduced responsiveness to beta adrenergic receptor agonist; conditions: for response of carbachol-precontracted trachea to beta adrenergic receptor agonist: 300 nM carbachol, 1 μM isoproterenol, 1 μM formoterol or 30 μM albuterol, FIG. 1A-C; for relaxation by second addition of beta agonist after the response to 3 μM formoterol has faded: second dose 3 μM formoterol or 100 μM albuterol
Description: Trachea were excised from male Sprague-Dawley rats, cleaned of connective tissue and cut into cylindrical segments of 2-3 mm length. Two stainless steel wires were guided through the lumen of the tracheal ring. One wire was fixed in the tissue bath and the other was connected to a force transducer via surgical silk. Preparations were mounted in 5 ml water-jacketed organ baths (Radnoti Glass Technology) filled with Krebs buffer (95 mM NaCl, 5 mM KCl, 2.6 mM CaCl2, 1.2 mM MgSO4, 24.9 mM NaHCO3, 1.2 mM KH2PO4, 10 mM glucose) maintained at 37° C. and gassed with 95% O2 and 5% CO2. Indomethacin (1 μM), a cyclooxygenase inhibitor, was added to the Krebs buffer and was present throughout the experiments. Contractile tensions were measured using an isometric force transducer (Grass Instruments) and signals were analyzed using specialized software (Chart v5.5, ADInstruments). The preparations were allowed to equilibrate at a resting tension of 0.3 to 0.5 gm prior to two challenges with 60 mM KCl to assess tissue viability. After washing, tissues were treated with 300 nM carbachol for 10 to 15 minutes to induce a contractile response. Tissues were then treated with isoproterenol, formoterol, or albuterol to induce a relaxant response. […] After 10 minutes of formoterol treatment, these tissues were treated with a second dose of formoterol or with albuterol. After an additional 10 minutes, tissues were treated with a Rho kinase inhibitor. Basal tension was subtracted from all values and data were reported as a percentage of the maximal carbachol-induced contraction. Four parameters were analyzed for quantitation of efficacies: i) the maximal relaxation induced by initial formoterol treatment, ii) the fade of the response to the initial formoterol treatment, iii) the maximal relaxation induced by the second addition of a beta adrenergic receptor agonist, and iv) the maximal relaxation induced by Rho kinase inhibitor.

rat tracheal rings [2] = experiment: Relaxation of carbachol-precontracted rat tracheal rings pretreated with vehicle or pro-inflammatory cytokines IL-1β and TNF-α; conditions: 300 nM carbachol, read-out: IC50 for relaxant response
Description: Male Sprague-Dawley rats weighing 301-325 gm were sacrificed by asphyxiation in a CO2 chamber. Trachea were excised, cleaned of connective tissue and cut into cylindrical segments of 2-3 mm length. Tissues were treated for 18 hours at 37° C. in F12 media with penicillin-streptomycin and 0.1% BSA alone or with 10 ng/ml IL-1β and 100 ng/ml TNF-α. IL-1β and TNF-α are pro-inflammatory cytokines. Tissues were then washed free of cytokines with Krebs buffer. Contractile tensions were measured using an isometric force transducer (Grass Instruments) as described for Example 1 and signals were analyzed using specialized software (Chart v5.5, ADInstruments). Tissues were treated with 300 nM carbachol for 10 to 15 minutes to induce a contractile response. Beta adrenergic receptor agonist compounds, isoproterenol or albuterol, were added cumulatively to the bath every 2 to 3 minutes and reductions in tension were recorded. Alternatively, Rho kinase inhibitor compound was added cumulatively to the bath every 30 minutes and reductions in tension were recorded. Basal tension was subtracted from all values and data were reported as a percentage of the maximal carbachol-induced contraction. Data were fit to the Hill equation using GraphPad Prism v5 software.

[3] = Pulmonary function test (FEV1 after methacholine provocation) in human patients treated with formoterol; format: in vivo; conditions: formoterol group compared to the placebo group, after 2 weeks
Excerpt: Patients with asthma or COPD are randomized to albuterol or Rho kinase inhibitor compound test groups. After 2-weeks of run-in period, subjects are given a methacholine provocation test (MPT) to induce bronchoconstriction followed by treatment with increasing doses of albuterol or with increasing doses of Rho kinase inhibitor compound to induce bronchorelaxation to establish the subject's baseline response to albuterol or Rho kinase inhibitor compound. Subjects from both test groups are then randomized to inhaled formoterol twice daily or placebo for 2 weeks. At the end of the trial period, the albuterol test group subjects are again administered a methacholine provocation test to induce bronchoconstriction followed by treatment with increasing doses of albuterol. Similarly, the Rho kinase inhibitor compound test group subjects are again administered a methacholine provocation test to induce bronchoconstriction followed by treatment with increasing doses of Rho kinase inhibitor compound to induce bronchorelaxation. The change in FEV1 after albuterol inhalation or administration of Rho kinase inhibitor compound is measured.

[4] = cytokine-pretreated tissue (10 ng/ml IL-1β and 100 ng/ml TNF-α, 18 hours)

SMILES | response of carbachol-precontracted trachea to beta adrenergic receptor agonist (rat tracheal rings [1]) | maximal relaxation induced by initial formoterol treatment (rat tracheal rings [1]; 3 μM formoterol, FIGS. 4-7) | relaxation by second addition of beta agonist after the response to 3 μM formoterol has faded (rat tracheal rings [1]) | IC50 (rat tracheal rings [2]; [4]) [nM] | IC50 (rat tracheal rings [2]; vehicle-pretreated tissue) [nM] | bronchodilator response as measured by FEV1 [3]
COc1ccc(CC(C)NCC(O)c2ccc(O)c(NC=O)c2)cc1 (centres unmarked) [formoterol] | initial rapid and partial relaxation of the tissue followed by a slower fade of the response to a more contractile state | approximately 30 % of the initial carbachol response | ineffective in relaxing the tracheal preparation | – | – | –
CC(C)(C)NCC(O)c1ccc(O)c(CO)c1 (centres unmarked) [albuterol] | initial rapid and partial relaxation of the tissue followed by a slower fade of the response to a more contractile state | – | ineffective in relaxing the tracheal preparation | 411 | 239 | decrease in the bronchodilator response
CC(C)NCC(O)c1ccc(O)c(O)c1 (centres unmarked) [isoproterenol] | initial rapid and partial relaxation of the tissue followed by a slower fade of the response to a more contractile state | – | – | 71 | 33 | –
